In patent publication US10918654B1, “Rutin compositions” (Alps Pharmaceutical Ind. Co., Ltd., priority 2019, dated 2021):

Assay: Stability of the flavonoid in aqueous L-arginine/sodium ascorbate solution at 50° C., intact amount by HPLC
Type: physicochemical
Conditions: for amount of intact flavonoid remaining, of the initial amount in the solution: dissolved in water with L-arginine and sodium ascorbate, HPLC
Experimental: A composition containing rutin, L-arginine, and ascorbate was prepared in water by mixing 0.0071 mol rutin with an aqueous solution containing 0.020 mol L-arginine, heating the mixture to 80° C. until the rutin dissolved completely, and adding 0.0010 mol sodium ascorbate.
After cooling the above solution, the stability of rutin was tested by heating the mixture to 50° C. and quantifying the amount of intact rutin remaining by HPLC after 0 h, 5 h, and 24 h.

amount of intact flavonoid remaining, of the initial amount in the solution (5 h at 50° C.): 100% | amount of intact flavonoid remaining, of the initial amount in the solution (24 h at 50° C.): 97.2% | flavonoid degraded (after 24 h at 50° C., with L-arginine and sodium ascorbate): 2.8%
SMILES: C[C@@H]1O[C@@H](OC[C@H]2O[C@@H](Oc3c(-c4ccc(O)c(O)c4)oc4cc(O)cc(O)c4c3=O)[C@H](O)[C@@H](O)[C@@H]2O)[C@H](O)[C@H](O)[C@H]1O [rutin]
